Columns and labels:
[1] = target: T1, MMP-9 (Homo sapiens, UniProt P14780); test: In vitro MMP inhibition, Ki determination (fluorogenic substrate II); type: biochemical; conditions: value not in parenthesis
T1 construct: made in house; host or cells: MMP-9-transfected HT1080 cells (spent media)
Protocol: (§1) Several hydroxamic acids and salts thereof were analyzed in in vitro assays to determine their ability to inhibit the MMP cleavage of peptide substrates. […] and IC50 constants were calculated from the assayed hydroxamic acid-MMP interactions.
(§2) Human recombinant MMP-1, MMP-2, MMP-9, MMP-13, and MMP-14 were used in this assay. All enzymes were prepared in Assignee's laboratories following usual laboratory procedures. Protocols for the preparation and use of these enzymes are available in the scientific literature. See, e.g., Enzyme Nomenclature (Academic Press, San Diego, Calif., 1992) (and the citations therein). See also, Freije et al., “Molecular cloning and expression of collagenase-3, a novel human matrix metalloproteinase produced by breast carcinomas,” J Biol. Chem., 269(24), 16766-16773 (1994).
The MMP-9 proenzyme was purified by gelatin Sepharose chromatography from spent media of MMP-9-transfected HT1080 cells provided by Dr. Howard Welgus of Washington University (St. Louis, Mo.).
(§3) All MMPs were activated using 4-aminophenylmercuric acetate (“APMA”, Sigma Chemical, St. Louis, Mo.) or trypsin. MMP-9 also was activated using human recombinant MMP-3 (purified in Assignee's laboratory following standard cloning and purification techniques).
(§4) Two fluorogenic, methoxycoumarin-containing polypeptide substrates were used in the MMP inhibition assays: [drawing 427] Here, “Dpa” is 3-(2,4-dinitrophenyl)-L-2,3-diaminopropionyl group, and “MCA” is 7-methoxycoumarin-4-yl acetyl. Substrate (I) was purchased from Baychem (Redwood City, Calif.), and substrate II was prepared Assignee's laboratory. Substrate I was used in the IC50 determination assays, while substrate II was used in the Ki determination assays. In the absence of MMP inhibitory activity, either substrate is cleaved at the Gly-Leu peptide bond. This cleavage separates the highly fluorogenic peptide from the 2,4-dinitrophenyl quencher, thus resulting in increase of fluorescent intensity.
(§5) The stock solutions of the assayed hydroxamic acids (or salts thereof) were prepared in 1% dimethyl sulfoxide (DMSO). These stock solutions were diluted in Buffer A (100 mM Tris-HCl, 100 mM NaCl, 10 mM CaCl2, 0.05% polyoxyethylene 23 lauryl ether, pH 7.5) to obtain solutions with different hydroxamic acid concentrations, i.e., assay solutions with different concentrations of the assayed MMP inhibitory compound. The experiment controls contained the same amount of Buffer A/DMSO as the assayed sample, but contained no hydroxamic acid (or salt thereof).
The assays from which the Ki determinations were made were performed as follows. The assayed hydroxamic acid samples were incubated in separate wells of untreated white polystyrene plates (Nunc Nalgene International, Rochester, N.Y.), and analyzed on a Tecan SpectraFlour Plus plate reader. The excitation wavelength was 330 nm, and the emission wavelength—420 nm. All samples (assayed hydroxamic acids and controls) were incubated in separate plate wells at room temperature for 1 hr in the presence of 4 μM of MMP substrate (II). In the absence of MMP inhibitory activity, substrate II was cleaved at the Gly-Leu bond resulting in an increase of relative fluorescence. Inhibition was observed as a reduced rate of this increase in relative fluorescence. The various hydroxamic acids were analyzed using a single low enzyme concentration with a single substrate concentration fixed at or below the Km. This protocol is a modification of method by Knight et al., FEBS Lett., 296(3), 263-266 (1992). Apparent inhibitory constants were determined by non-linear regression of reaction velocity as a function of inhibitor and enzyme concentration using Morrison's equation, as described by Kuzmic, Anal. Biochem. 286, 45-50 (2000). Modifications were made in the non-linear regression method to allow a common control reaction rate and effective enzyme concentration to be shared between all dose-response relationships on a given assay plate. […]

[2] = target: T2, MMP-14 (Homo sapiens, UniProt P50281); test: as above; type: biochemical; conditions: value not in parenthesis; read-out: MMP-14 Ki
T2 construct: The catalytic domain enzyme was expressed in E. coli inclusion bodies, solubilized in urea; made in house
Protocol: as §1, §2
The MMP-14 full length cDNA was provided by Dr. Gregory Goldberg of Washington University (St. Louis, Mo.). The catalytic domain enzyme was expressed in E. coli inclusion bodies, solubilized in urea, purified on a preparative […] reverse phase HPLC column, and then refolded in the presence of zinc acetate and purified for use.
as §3, §4, §5
The assays from which the Ki determinations were made were performed as follows. The assayed hydroxamic acid samples were incubated in separate wells of untreated white polystyrene plates (Nunc Nalgene International, Rochester, N.Y.), and analyzed on a Tecan SpectraFlour Plus plate reader. The excitation wavelength was 330 nm, and the emission wavelength—420 nm. All samples (assayed hydroxamic acids and controls) were incubated in separate plate wells at room temperature for 1 hr in the presence of 4 μM of MMP substrate (II). In the absence of MMP inhibitory activity, substrate II was cleaved at the Gly-Leu bond resulting in an increase of relative fluorescence. Inhibition was observed as a reduced rate of this increase in relative fluorescence. The various hydroxamic acids were analyzed using a single low enzyme concentration with a single substrate concentration fixed at or below the Km. This protocol is a modification of method by Knight et al., FEBS Lett., 296(3), 263-266 (1992). Apparent inhibitory constants were determined by non-linear regression of reaction velocity as a function of inhibitor and enzyme concentration using Morrison's equation, as described by Kuzmic, Anal. Biochem. 286, 45-50 (2000).

T1 sequence (P14780 107-707 limits assumed): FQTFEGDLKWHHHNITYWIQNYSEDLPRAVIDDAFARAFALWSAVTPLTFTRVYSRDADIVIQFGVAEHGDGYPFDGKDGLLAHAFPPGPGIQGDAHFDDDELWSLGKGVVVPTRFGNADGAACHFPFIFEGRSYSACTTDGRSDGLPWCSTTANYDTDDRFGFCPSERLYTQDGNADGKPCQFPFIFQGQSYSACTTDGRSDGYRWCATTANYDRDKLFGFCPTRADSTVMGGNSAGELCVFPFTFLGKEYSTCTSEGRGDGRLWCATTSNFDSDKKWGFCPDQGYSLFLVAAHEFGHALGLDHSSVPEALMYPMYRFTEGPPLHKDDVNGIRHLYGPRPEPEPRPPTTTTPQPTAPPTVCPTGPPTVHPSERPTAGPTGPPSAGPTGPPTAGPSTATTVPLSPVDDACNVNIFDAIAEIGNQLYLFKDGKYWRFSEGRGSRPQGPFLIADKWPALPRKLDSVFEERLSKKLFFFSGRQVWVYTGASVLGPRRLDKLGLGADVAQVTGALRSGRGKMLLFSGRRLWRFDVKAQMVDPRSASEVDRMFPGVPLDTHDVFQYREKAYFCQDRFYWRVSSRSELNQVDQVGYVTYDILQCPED

| Structure (SMILES) | Ki [1] | Ki [2] |
| --- | --- | --- |
| CCCCOc1ccc(N2CCN(S(=O)(=O)C3(C(=O)NO)CCN(c4ccc(C)cn4)CC3)CC2)cc1 [Example 125] | 7.2 nM | 2760 nM |
| CCCCOc1ccc(N2CCN(S(=O)(=O)C3(C(=O)NO)CCN4CCCC4C3)CC2)cc1F (centres unmarked) [Example 126] | 19 nM | > 10000 nM |
| CCCCOc1ccc(N2CCN(S(=O)(=O)C3(C(=O)NO)CCN(C(=O)c4cc5ccccc5o4)CC3)CC2)cc1 [Example 127] | 24 nM | > 10000 nM |
| CCCCOc1ccc(N2CCN(S(=O)(=O)C3(C(=O)NO)CCN(c4nccc(C(F)(F)F)n4)CC3)CC2)cc1 [Example 130] | 23.2 nM | > 10000 nM |
| CCCCOc1ccc(N2CCN(S(=O)(=O)C3(C(=O)NO)CCN(c4ccc(C)nc4)CC3)CC2)cc1 [Example 131] | 3.03 nM | 3660 nM |
| O=C1c2ccccc2C(=O)N1CCCCc1ccc(N2CCN(S(=O)(=O)C3(C(=O)NO)CCOCC3)CC2)nc1 [Example 132] | 28.3 nM | 158 nM |
| Cc1ccc(N2CCN(S(=O)(=O)C3(C(=O)NO)CCOCC3)CC2)nc1 [Example 138] | 5.09 nM | 66.6 nM |
| CCCCOc1ccc(N2CCN(S(=O)(=O)C3(C(=O)NO)CCN(c4cc(C)ccn4)CC3)CC2)cc1 [Example 139] | 7.45 nM | 1260 nM |
| CCCCOc1ccc(N2CCN(S(=O)(=O)C3(C(=O)NO)CCN(C(=O)OCCOC)CC3)CC2)cc1 [Example 141] | 5.33 nM | 1140 nM |
| CCCCOc1ccc(N2CCN(S(=O)(=O)C3(C(=O)NO)CCN(C(=O)c4cc5ccccc5s4)CC3)CC2)cc1 [Example 143] | 29 nM | > 10000 nM |
| CCCCCc1ccc(N2CCN(S(=O)(=O)C3(C(=O)NO)CCN(c4ccc(C)cc4)CC3)CC2)cc1 [Example 147] | 13.7 nM | > 10000 nM |
| COCCN1CCC(C(=O)NO)(S(=O)(=O)N2CCN(c3ccc(OCCC(C)C)cc3)CC2)CC1 [Example 148] | 2.35 nM | 6980 nM |
| CCCCOc1ccc(N2CCN(S(=O)(=O)C3(C(=O)NO)CCN(c4ccccn4)CC3)CC2)cc1 [Example 149] | 5.87 nM | 2660 nM |
| CCCCOc1ccc(N2CCN(S(=O)(=O)C3(C(=O)NO)CCN(c4nc5ccccc5o4)CC3)CC2)cc1 [Example 150] | 31.4 nM | 8650 nM |
| O=C(NO)C1(S(=O)(=O)N2CCN(c3ccc(SC(F)(F)F)cc3)CC2)CCN(Cc2ccccc2)CC1 [Example 152] | 90 nM | 2240 nM |
| O=C(NO)C1(S(=O)(=O)N2CCN(c3ccc(OCCCC(F)(F)F)cc3)CC2)CCN(C2CC2)CC1 [Example 153] | 6.1 nM | 6770 nM |
| CCCCOc1ccc(N2CCN(S(=O)(=O)C3(C(=O)NO)CCN(c4ncc(CC)cn4)CC3)CC2)cc1 [Example 155] | 9.86 nM | 5350 nM |

Continued, values first:

| Ki [1] | Ki [2] | Structure (SMILES) |
| --- | --- | --- |
| 0.429 nM | > 10000 nM | CCCCOc1ccc(N2CCN(S(=O)(=O)C3(C(=O)NO)CCN(C(=O)N4CCOCC4)CC3)CC2)cc1 [Example 124] |
| 1.92 nM | 5380 nM | CC(C)CCOc1ccc(N2CCN(S(=O)(=O)C3(C(=O)NO)CCN(C4CC4)CC3)CC2)cc1 [Example 128] |
| 1.2 nM | 1300 nM | CCCCOc1ccc(N2CCN(S(=O)(=O)C3(C(=O)NO)CCN(c4ccc(OCCOC)nn4)CC3)CC2)cc1 [Example 129] |
| 0.52 nM | 2120 nM | CC(C)CCc1ccc(N2CCN(S(=O)(=O)C3(C(=O)NO)CCOCC3)CC2)nc1 [Example 133] |
| 0.196 nM | 159 nM | CCCc1ccc(N2CCN(S(=O)(=O)C3(C(=O)NO)CCOCC3)CC2)nc1 [Example 136] |
| 1.76 nM | 945 nM | CCCCOc1ccc(N2CCN(S(=O)(=O)C3(C(=O)NO)CCN(c4cnccn4)CC3)CC2)cc1 [Example 140] |
| 2.15 nM | 2630 nM | CCCCOc1ccc(N2CCN(S(=O)(=O)C3(C(=O)NO)CCN(c4ccc(OC)nc4)CC3)CC2)cc1 [Example 142] |
| 2.31 nM | > 10000 nM | COCCN1CCC(C(=O)NO)(S(=O)(=O)N2CCN(c3ccc(OCC(F)(F)C(F)(F)F)cc3)CC2)CC1 [Example 144] |
| 1.18 nM | 2350 nM | CCCCOc1ccc(N2CCN(S(=O)(=O)C3(C(=O)NO)CCOCC3)CC2)cc1 [Example 145] |
| 2.29 nM | 8660 nM | CCCCc1ccc(N2CCN(S(=O)(=O)C3(C(=O)NO)CCN(c4ccc(C)cc4)CC3)CC2)cc1 [Example 146] |
| 2.15 nM | 3600 nM | CCCCOc1ccc(N2CCN(S(=O)(=O)C3(C(=O)NO)CCN(c4cccnc4)CC3)CC2)cc1 [Example 154] |

Source: patent US20050209278A1, “Piperidinyl- and piperazinyl-sulfonylmethyl hydroxamic acids and their use as protease inhibitors” (priority 2002, published 2005)
